Results: ChEMBL document CHEMBL4390686, “Design, Synthesis, and Pharmacokinetic Evaluation of Phosphate and Amino Acid Ester Prodrugs for Improving the Oral Bioavailability of the HIV-1 Protease Inhibitor Atazanavir” (J Med Chem, 2019)
≈ marks a conversion by molar mass, not a printed value.

Experiments:
[1] = Tmax in cannulated Sprague-Dawley rat assessed as atazanavir level at 6 mg/kg equiv of atazanavir administered orally by UPLC/MS/MS analysis; format: ADME, organism-based; details: in vivo, po
[2] = Aqueous solubility of the compound in pH 4 citrate buffer by RP-UPLC analysis; format: physicochemical
[3] = Aqueous solubility of the compound in pH 5 buffer by RP-UPLC analysis; format: physicochemical
[4] = Aqueous solubility of the compound in FaSSIF by RP-HPLC analysis; format: physicochemical
[5] = Ratio of test compound to atazanavir aqueous solubility in pH 3 buffer by RP-UPLC analysis; format: physicochemical
[6] = Ratio of test compound to atazanavir aqueous solubility in pH 4 acetate buffer by RP-UPLC analysis; format: physicochemical
[7] = Elimination half life in rat hepatocytes at 1 uM in presence of CYP450 inhibitor ABT; format: ADME, cell-based, Hepatocyte; details: with ABT (CYP450 inhibitor), read-out: beta t1/2
[8] = Elimination half life in rat hepatocytes at 1 uM in presence of esterase inhibitor PMSF/CYP450 inhibitor ABT; format: ADME, cell-based, Hepatocyte; details: read-out: beta t1/2
[9] = Prodrug conversion in rat hepatocytes assessed as pseudo first order rate constant for atazanavir formation at 1 uM in presence of esterase inhibitor PMSF; format: ADME, cell-based, Hepatocyte
[10] = Drug recovery in mesenteric vein plasma of closed loop rat intestinal model at 1 mg/kg administered as cassette dose by LC/MS analysis; format: ADME, organism-based; details: in vivo
[11] = Drug recovery in intestinal homogenates of closed loop rat intestinal model at 1 mg/kg administered as cassette dose by LC/MS analysis; format: ADME, organism-based, Intestine; details: intestinal homogenate, other: closed loop intestinal model, read-out: Drug recovery
[12] = target: T1, UDP-glucuronosyltransferase 1A1 (Rattus norvegicus, UniProt Q64550); assay: Inhibition of recombinant rat UGT1A1 using beta-estradiol as substrate preincubated for 5 mins followed by substrate addition and measured after 40 mins by LC-MS/MS analysis; format: ADME
T1 sequence (Q64550 whole entry): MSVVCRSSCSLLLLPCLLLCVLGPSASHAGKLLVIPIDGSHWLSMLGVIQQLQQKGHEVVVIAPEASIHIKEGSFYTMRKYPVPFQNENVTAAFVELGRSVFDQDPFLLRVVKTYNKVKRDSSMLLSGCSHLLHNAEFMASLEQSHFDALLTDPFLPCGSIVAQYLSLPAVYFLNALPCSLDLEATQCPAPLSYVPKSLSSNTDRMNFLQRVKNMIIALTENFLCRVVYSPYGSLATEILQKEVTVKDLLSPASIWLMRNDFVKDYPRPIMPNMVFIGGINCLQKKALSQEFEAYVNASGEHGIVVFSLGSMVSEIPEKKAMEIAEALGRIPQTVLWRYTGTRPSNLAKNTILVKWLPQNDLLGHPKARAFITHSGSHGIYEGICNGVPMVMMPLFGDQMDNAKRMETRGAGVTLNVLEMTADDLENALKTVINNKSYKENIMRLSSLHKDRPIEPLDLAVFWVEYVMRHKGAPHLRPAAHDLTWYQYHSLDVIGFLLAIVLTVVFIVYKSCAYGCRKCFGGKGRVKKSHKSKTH

[13] = target: T1, UDP-glucuronosyltransferase 1A1; assay: Inhibition of UGT1A1 in rat liver microsomes using beta-estradiol as substrate preincubated for 5 mins followed by substrate addition and measured after 40 mins by LC-MS/MS analysis; format: ADME
[14] = target: T2, UGT1A1 (Homo sapiens, UniProt P22309); assay: Ratio of test compound IC50 to atazanavir IC50 for recombinant human UGT1A1; format: ADME; details: read-out: Ratio IC50
T2 sequence (P22309 whole entry): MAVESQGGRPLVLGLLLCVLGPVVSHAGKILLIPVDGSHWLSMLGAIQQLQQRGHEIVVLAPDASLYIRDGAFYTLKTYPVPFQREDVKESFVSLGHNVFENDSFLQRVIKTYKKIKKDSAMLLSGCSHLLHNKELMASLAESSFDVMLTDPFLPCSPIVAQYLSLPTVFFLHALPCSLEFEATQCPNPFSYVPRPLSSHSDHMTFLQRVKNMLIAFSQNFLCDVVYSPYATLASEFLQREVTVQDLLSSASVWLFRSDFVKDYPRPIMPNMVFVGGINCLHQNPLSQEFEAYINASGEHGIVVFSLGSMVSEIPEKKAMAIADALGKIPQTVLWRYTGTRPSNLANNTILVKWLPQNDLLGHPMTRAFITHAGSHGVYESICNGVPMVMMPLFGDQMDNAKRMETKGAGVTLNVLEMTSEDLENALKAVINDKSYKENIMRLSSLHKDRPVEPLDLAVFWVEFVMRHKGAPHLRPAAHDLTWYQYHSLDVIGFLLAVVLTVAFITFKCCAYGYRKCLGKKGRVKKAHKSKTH

[15] = tested on: UGT1A1; assay: Ratio of test compound IC50 to atazanavir IC50 for recombinant cynomolgus monkey UGT1A1; format: ADME, Macaca fascicularis; details: read-out: Ratio IC50
[16] = target: T3, UGT1A1 (Rattus norvegicus, UniProt Q64550); assay: Ratio of test compound IC50 to atazanavir IC50 for recombinant rat UGT1A1; format: ADME; details: read-out: Ratio IC50
T3 sequence (Q64550 whole entry): T1 sequence (Q64550 whole entry)

[17] = target: T3, UGT1A1; assay: Ratio of test compound IC50 to atazanavir IC50 for UGT1A1 in rat liver microsomes; format: ADME; details: read-out: Ratio IC50
[18] = rat, in vivo, po, 3 mg/kg
[19] = tested on: Human immunodeficiency virus 1
Description: Antiviral activity against HIV1 NL4-3 infected in human MT2 cells assessed as reduction in viral yield measured after 4 days by EnduRen live cell substrate based luciferase reporter gene assay

[20] = physchem; details: acetate buffer, pH 4
Description: Aqueous solubility of the compound in pH 4 acetate buffer by RP-UPLC analysis

[21] = physchem; details: phosphate buffer, pH 6.5
Description: Aqueous solubility of the compound in pH 6.5 phosphate buffer by RP-UPLC analysis

[22] = in vitro; details: human, Caco-2
Description: Apparent permeability across apical to basolateral side in human Caco2 cells at 2 uM

[23] = in vitro; details: human, Caco-2; remark: listed apart in the source
Description: Efflux ratio of apparent permeability across basolateral to apical side over apical to basolateral side in human Caco2 cells

Tmax [1]: 0.5 h
solubility [2]: > 1100 µg/mL
solubility [3]: 1300 µg/mL (≈ 1530 µM)
solubility [4]: 130 µg/mL (≈ 153 µM)
Ratio [5]: 114
Ratio [6]: 4100
half-life at 1 µM [7]: > 2 h
half-life at 1 µM [8]: > 2 h
K [9]: 0.0009 min⁻¹
Drug recovery [10]: 2.8%
recovery [11]: 5.6%
IC50 [12]: 12.6 µM
IC50 [13]: 19.5 µM
Tmax [18]: 0.5 h
EC50 [19]: 0.0009 to 1.25 µM
solubility [20]: 1100 to 4100 µg/mL (≈ 1290 to 4810 µM)
solubility [21]: 27 µg/mL (≈ 31.7 µM)
Papp A→B at 2 µM [22]: < 1.5 ×10⁻⁶ cm/s
efflux ratio [23]: > 8.7
Structure (SMILES): COC(=O)N[C@H](C(=O)N[C@@H](Cc1ccccc1)[C@H](CN(Cc1ccc(-c2ccccn2)cc1)NC(=O)[C@@H](NC(=O)OC)C(C)(C)C)OC(=O)[C@@H](N)Cc1ccccc1)C(C)(C)C
selectivity ratio [14]: 9.3
selectivity ratio [15]: 17
selectivity ratio [16]: 3
selectivity ratio [17]: 5.7
